Results on four compounds are retold here after patent publication US20100136598A1, “NOVEL MESENCHYMAL PROGENITOR CELLS DERIVED FROM HUMAN BLASTOCYST-DERIVED STEM CELLS” (priority 2007, published 2010).

Structures are written as SMILES. Where two headings read alike, the source gives them in different places.

One series concerns hBS cells. In words: Cytotoxicity test in 96-well plates, 10 days (ATP content / Resazurin). Particulars: for Ratios between the IC50 values measured using the Resazurin assay: hBS cells (reference = 1), day 10.
The next series concerns hFF cells. The series is described as above. Particulars: for Ratios between the IC50 values measured using the Resazurin assay: hFF cells relative to hBS cells, day 10.
Series [1] concerns hBS-MP cells. Described as above. Particulars: for sensitivity of hBS cells and hBS-MP cells compared to hFF cells (comparison of IC50 values): hBS and hBS-MP cells versus hFF cells; for Ratios between the IC50 values measured using the Resazurin assay: hBS-MP cells relative to hBS cells, day 10.
Protocol: (§1) hBS cells were dissociated into small cell aggregates and seeded into 96-well plates (Nunc, Kamstrupvej, Denmark) in 100 μl Test medium containing Knock Out DMEM supplemented with 20% Foetal bovine Serum (FBS), 1% penicillin-streptomycin, 1% Glutamax, 0.5 mmol/l β-mercaptoethanol and 1% non-essential amino acids (all Invitrogen). hBS-MP cells and hFF cells were dissociated into single cells and seeded into 96-well plates in 100 μl test medium.
(§2) After 24 hours the cytotoxicity test was started by adding 100 μl toxicity solution to the test wells that had twice the concentration as the required end concentration (day 0).
The subject of series [2] is hBS-MP cells.
Protocol: as §1, §2

As to `O=C1NS(=O)(=O)c2ccccc21.[Na]` [saccharin, sodium saccharin], the toxic reaction entry with hBS cells (hBS cells, data not shown) is recorded as “no toxic reaction”; in the series on hFF cells (hFF cells, data not shown), “no toxic reaction”; in the series with hBS-MP cells [1] (hBS-MP cells, data not shown), “no toxic reaction”.

`CC1=C(/C=C/C(C)=C/C=C/C(C)=C/C(=O)O)C(C)(C)CCC1` [ATRA, all-trans-retinoic acid]: the “Ratios between the IC50 values measured using the Resazurin assay” value (shortened to “Ratios between the IC50 values measured”) was determined as 1 in the series with hBS cells, 2 in the series on hFF cells and 1 in the series on hBS-MP cells [1]. The “sensitivity of hBS cells and progenitor cells compared to hFF (dose-response curve)” value in the series with hBS-MP cells [2] is “higher sensitivity”. Further, in the series on hBS-MP cells [1], the “sensitivity of hBS cells and hBS-MP cells compared to hFF cells (comparison of IC50 values)” value was “much more sensitive”.

As to `CC1=C(/C=C/C(C)=C/C=C/C(C)=C\C(=O)O)C(C)(C)CCC1` [13CRA, 13-cis-retinoic acid], the “Ratios between the IC50 values measured” value worked out at 1 in the series with hBS cells, 10 in the series on hFF cells and 4 with hBS-MP cells [1]. In addition, the “sensitivity of hBS cells and progenitor cells compared to hFF (dose-response curve)” value in the series on hBS-MP cells [2] is given as “higher sensitivity”. Further, the “sensitivity of hBS cells and hBS-MP cells compared to hFF cells (comparison of IC50 values)” value in the series with hBS-MP cells [1] is listed as “much more sensitive”.

On to `O=c1[nH]cc(F)c(=O)[nH]1` [5-FU, 5-fluoro-uracil], for which the “Ratios between the IC50 values measured” value is listed as 1 in the series on hBS cells, 7 with hFF cells and 3 in the series with hBS-MP cells [1]. Besides, the “sensitivity of hBS cells and hBS-MP cells compared to hFF cells (comparison of IC50 values)” value with hBS-MP cells [2] is “much more sensitive”.
